Data: patent US20170333591A9, “ABSORBENT ARTICLE COMPRISING MALODOR REDUCTION COMPOSITIONS” (The Procter & Gamble Company, priority 2014, published 2017)

Test: Log of liquid dish neat product liquid-air partition coefficient
Type: physicochemical
Settings: not given

SMILES | Comment Code: Log of liquid dish neat product liquid-air partition coefficient
C=CC(C)(O)CCC=C(C)C (stereo not shown) [Material 157] | K (Log of liquid dish neat product liquid-air partition coefficient greater than or equal to 7)
C=C1[C@H]2CC[C@H](CO)[C@@]23CC[C@H](C3)C1(C)C [Material 183] | K (Log of liquid dish neat product liquid-air partition coefficient greater than or equal to 7)
CC1(CO)CC1CC1CC2CC2(C)C1(C)C (stereo not shown) [Material 185] | K (Log of liquid dish neat product liquid-air partition coefficient greater than or equal to 7)
CC1CCCCCCCCCCCCC(=O)C1 (stereo not shown) [Material 206] | K (Log of liquid dish neat product liquid-air partition coefficient greater than or equal to 7)
CC=Cc1ccc(OC(C)=O)c(OC)c1 [Material 213] | K (Log of liquid dish neat product liquid-air partition coefficient greater than or equal to 7)

Same assay, conditions: code letter within the Comment Code cell

SMILES | Log of liquid dish neat product liquid-air partition coefficient (Comment Code K/L)
C=CC1(C)CCC(C(C)(C)O)O1 (stereo not shown) [Material 156] | K (Log of liquid dish neat product liquid-air partition coefficient greater than or equal to 7)
CC/C(C)=C/CC/C(C)=C\C#N [Material 158] | K (Log of liquid dish neat product liquid-air partition coefficient greater than or equal to 7)
CC1=CCC(C(C)CC=O)CC1 (stereo not shown) [Material 159] | K (Log of liquid dish neat product liquid-air partition coefficient greater than or equal to 7)
Cc1ccc2c(c1)CC(C)(CO)C2 (stereo not shown) [Material 161] | K (Log of liquid dish neat product liquid-air partition coefficient greater than or equal to 7)
CC(C=O)Cc1ccc(C(C)(C)C)cc1 (stereo not shown) [Material 162] | K (Log of liquid dish neat product liquid-air partition coefficient greater than or equal to 7)
C=C(C)C1CC=C(C)C(O)C1 (stereo not shown) [Material 170] | K (Log of liquid dish neat product liquid-air partition coefficient greater than or equal to 7)
CCCCCCCCCCCCOC(C)=O [Material 175] | K (Log of liquid dish neat product liquid-air partition coefficient greater than or equal to 7)
CCCCCCCCCCCC=O [Material 178] | K (Log of liquid dish neat product liquid-air partition coefficient greater than or equal to 7)
C=C(OCC)C1C(C)(C)CC(=O)CC1(C)C [Material 182] | K (Log of liquid dish neat product liquid-air partition coefficient greater than or equal to 7)
C=C1[C@H]2CC[C@H](CO)[C@@]23CC[C@H](C3)C1(C)C [Material 183] | K (Log of liquid dish neat product liquid-air partition coefficient greater than or equal to 7)
CC1(CO)CC1CC1CC2CC2(C)C1(C)C (stereo not shown) [Material 185] | K (Log of liquid dish neat product liquid-air partition coefficient greater than or equal to 7)
CC1OCC(c2ccccc2)O1 (stereo not shown) [Material 190] | K (Log of liquid dish neat product liquid-air partition coefficient greater than or equal to 7)
CC1=CCC(C)C(C)C12C=CC(C)O2 (stereo not shown) [Material 192] | K (Log of liquid dish neat product liquid-air partition coefficient greater than or equal to 7)
CCCCCCCCCCCCCC(=O)OC(C)C [Material 196] | K (Log of liquid dish neat product liquid-air partition coefficient greater than or equal to 7)
CCCCCCCCCCCC(=O)OC(C)C [Material 197] | K (Log of liquid dish neat product liquid-air partition coefficient greater than or equal to 7)
CC1CCCCCCCCCCCCC(=O)C1 (stereo not shown) [Material 206] | K (Log of liquid dish neat product liquid-air partition coefficient greater than or equal to 7)
CC(C)=CCCC1=CCC(C=O)CC1 (stereo not shown) [Material 211] | K (Log of liquid dish neat product liquid-air partition coefficient greater than or equal to 7)
